From PubChem BioAssay (NCI)
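These data come from cells grown in 96-well plates and exposed to compound for 48 hours at five concentrations. TGI marks complete inhibition of growth.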

Assays:
Test in all cases: NCI-60 cell line screen, 48 h
[1] = system: SNB-19 CNS
[2] = system: OVCAR-5 ovarian
[3] = system: SW-620 colon
[4] = system: 786-0 renal
[5] = system: XF 498 CNS
[6] = system: SNB-75 CNS
[7] = system: SNB-78 CNS
[8] = system: M14 melanoma
[9] = system: LXFL 529 NSCLC
[10] = system: TK-10 renal
[11] = system: RXF 393 renal
[12] = system: HCT-15 colon
[13] = system: A549 NSCLC
[14] = system: DMS 273 small cell lung
[15] = system: HCC-2998 colon
[16] = system: LOX IMVI melanoma
[17] = system: UACC-257 melanoma
[18] = system: HOP-92 NSCLC
[19] = system: HL-60(TB) leukemia
[20] = system: OVCAR-3 ovarian
[21] = system: MALME-3M melanoma
[22] = system: NCI-H226 lung
[23] = system: SK-OV-3 ovarian
[24] = system: DMS 114 small cell lung
[25] = system: K-562 leukemia
[26] = system: SK-MEL-2 melanoma
[27] = system: M19-MEL melanoma
[28] = system: A498 renal
[29] = system: SF-539 CNS
[30] = system: NCI-H23 lung
[31] = system: NCI-H460 lung
[32] = system: UO-31 renal
[33] = system: KM20L2 colon
[34] = system: HT29 colon
[35] = system: ACHN renal
[36] = system: SR leukemia
[37] = system: SF-268 CNS
[38] = system: OVCAR-4 ovarian
[39] = system: SN12C renal
[40] = system: SK-MEL-5 melanoma
[41] = system: SK-MEL-28 melanoma
[42] = system: NCI-H522 lung
[43] = system: HOP-62 NSCLC
[44] = system: COLO 205 colon
[45] = system: HCT-116 colon
[46] = system: EKVX NSCLC
[47] = system: U251 CNS
[48] = system: UACC-62 melanoma
[49] = system: MOLT-4 leukemia
[50] = system: DLD-1 colon
[51] = system: CCRF-CEM leukemia
[52] = system: RPMI-8226 leukemia
[53] = system: SF-295 CNS
[54] = system: IGROV1 ovarian
[55] = system: OVCAR-8 ovarian
[56] = system: CAKI-1 renal
[57] = system: KM12 colon

With NC(CCCCN=Cc1nc(-c2ccccc2)oc1O)C(=O)O (centres undefined) the TGI [1] was > 100000 nM, the TGI [2] was > 100000 nM and the TGI [3] was > 100000 nM. For the same compound, the TGI [4] was > 100000 nM, the TGI [5] was > 100000 nM and the TGI [6] was > 100000 nM. For the same compound, the TGI [7] was > 100000 nM, the TGI [8] was > 100000 nM and the TGI [9] was > 100000 nM. The TGI [10] was > 100000 nM, the TGI [11] was > 100000 nM and the TGI [12] was > 100000 nM. The TGI [13] was > 100000 nM, the TGI [14] was > 100000 nM and the TGI [15] was > 100000 nM. The TGI [16] was > 100000 nM, the TGI [17] was > 100000 nM and the TGI [18] was > 100000 nM. The TGI [19] was > 100000 nM, the TGI [20] was > 100000 nM and the TGI [21] was > 100000 nM. For the same compound, the TGI [22] was > 100000 nM, the TGI [23] was > 100000 nM and the TGI [24] was > 100000 nM. The TGI [25] was > 100000 nM, the TGI [26] was > 100000 nM and the TGI [27] was > 100000 nM. For the same compound, the TGI [28] was > 100000 nM, the TGI [29] was > 100000 nM and the TGI [30] was > 100000 nM. For the same compound, the TGI [31] was > 100000 nM, the TGI [32] was > 100000 nM and the TGI [33] was > 100000 nM. For the same compound, the TGI [34] was > 100000 nM, the TGI [35] was > 100000 nM and the TGI [36] was > 100000 nM. For the same compound, the TGI [37] was > 100000 nM, the TGI [38] was > 100000 nM and the TGI [39] was > 100000 nM. For the same compound, the TGI [40] was > 100000 nM, the TGI [41] was > 100000 nM and the TGI [42] was > 100000 nM. The TGI [43] was > 100000 nM, the TGI [44] was > 100000 nM and the TGI [45] was > 100000 nM. The TGI [46] was > 100000 nM, the TGI [47] was > 100000 nM and the TGI [48] was > 100000 nM. For the same compound, the TGI [49] was > 100000 nM, the TGI [50] was > 100000 nM and the TGI [51] was > 100000 nM. For the same compound, the TGI [52] was > 100000 nM, the TGI [53] was > 100000 nM and the TGI [54] was > 100000 nM. The TGI [55] was > 100000 nM.
COC(=O)c1c(C)cc2c(c1O)C1(O)C(=O)c3cc4c(c(O)c3C(=O)C1(OC)C(O)C2)C(=O)C=C(NC1OC(C)C(OC)C(O)C1OC)C4=O (centres undefined) showed a TGI [1] of 1220 nM, a TGI [2] of 401 nM and a TGI [3] of 164 nM. The TGI [4] was 202 nM, the TGI [5] was 235 nM and the TGI [56] was 806 nM. It also gave a TGI [6] of 277 nM, a TGI [7] of 324 nM and a TGI [8] of 262 nM. The TGI [9] was 205 nM, the TGI [10] was 293 nM and the TGI [11] was 52.5 nM. The TGI [12] was 443 nM, the TGI [13] was 1030 nM and the TGI [14] was 468 nM. It also gave a TGI [15] of 280 nM, a TGI [16] of 86.6 nM and a TGI [17] of 35.7 nM. The TGI [18] was 443 nM, the TGI [19] was 184 nM and the TGI [20] was 558 nM. It also gave a TGI [21] of 249 nM, a TGI [22] of 416 nM and a TGI [23] of 1580 nM. It also gave a TGI [24] of 29.5 nM, a TGI [25] of 178 nM and a TGI [26] of 149 nM. It also gave a TGI [27] of 51.6 nM, a TGI [28] of 710 nM and a TGI [29] of 200 nM. It also gave a TGI [30] of 36.8 nM, a TGI [31] of 435 nM and a TGI [32] of 427 nM. For the same compound, the TGI [33] was 395 nM, the TGI [34] was 222 nM and the TGI [35] was 205 nM. For the same compound, the TGI [37] was 648 nM, the TGI [38] was 213 nM and the TGI [39] was 243 nM. For the same compound, the TGI [57] was 562 nM, the TGI [42] was 257 nM and the TGI [43] was 1260 nM. For the same compound, the TGI [44] was 186 nM, the TGI [45] was 177 nM and the TGI [46] was 864 nM. It also gave a TGI [47] of 663 nM, a TGI [48] of 50.2 nM and a TGI [49] of 130 nM. For the same compound, the TGI [50] was 120 nM, the TGI [51] was 166 nM and the TGI [52] was 303 nM. For the same compound, the TGI [53] was 146 nM, the TGI [54] was 63.5 nM and the TGI [55] was 140 nM.
